In brackets after ≈: the same amount, converted by molar mass. Bounds are passed on as bounds.

62 compounds from PubChem BioAssay AID1645848 can be followed below.

For the series the following is noted: buffer; pH 7.4; 6.0 h; 150.0 µM.
In the case of `CC(C)(C)OC(=O)N[C@@H](Cc1ccc(O[S+](=O)([O-])c2cccc3cnccc23)cc1)C(=O)N1CCN(Cc2ccccc2)CC1`, the kinetic solubility (in general, solubility judged after dilution from a stock solution rather than from solid) is below 1 µg/mL. As for `Cc1ccnc(NC(=S)N2CCN(c3ccccc3C(F)(F)F)CC2)c1`, the figure is 8.07 µg/mL (≈ 21.2 µM).

Compound `CCOC(=O)N1CCN(Cc2nc3c(c(=O)n(C)c(=O)n3C)n2Cc2ccc(F)cc2)CC1` gave a solubility (kinetic) above 68 µg/mL. Turning to `CCOc1ccc(-c2csc(N3CCC(C(N)=O)CC3)n2)cc1`, the solubility (kinetic) amounted to 11 µg/mL (≈ 33.2 µM). As for `Cc1ccc(SC2=NS(=O)(=O)c3ccccc32)c(C)c1`, the figure is below 1 µg/mL; as for `N#Cc1nc(-c2cccc3ccccc23)oc1NC1COC1`, below 1 µg/mL; as for `CCOc1ccc(CCNC(=O)c2cc3sccc3n2Cc2cccc(C)c2)cc1OCC`, below 1 µg/mL. As for `N#Cc1cnccc1-c1nc(Nc2ccc(F)c(F)c2)c2ccccc2n1`, the figure is below 1 µg/mL. `O=C(Nc1cncc(Cc2ccccc2)c1)c1ccc(-c2cccc([N+](=O)[O-])c2)o1`: the solubility (kinetic) was below 1 µg/mL. `CC(=O)N1CCN(c2ccc(OCc3nn(C)c(C)c3-c3cccc4c(CCCOc5cccc6ccccc56)c(C(=O)O)n(Cc5cccnc5)c34)cc2)CC1` displayed a solubility (kinetic) above 100 µg/mL. The same measure for `CCNC(=O)Nc1ncc(-c2cc(-c3c(C)cc(OC)cc3C)nc(-c3cnccn3)n2)s1`: below 1 µg/mL; for `CCCc1ccc(NC(=O)c2ccc3c(c2)NC(=O)CS3)cc1`: below 1 µg/mL; for `CC[C@@H](C)Nc1cc(C(=O)NC2CC3CCC(C2)N3c2ccc(C(=O)C3CC3)cn2)c(C)cc1C(N)=O` (some centres not stated): below 1 µg/mL.

On to `Cc1ccc2oc3c(c(=O)c2c1)C(c1ccc(O)cc1)N(CCCN(C)C)C3=O` (configuration not stated), for which the solubility (kinetic) is above 58 µg/mL.

As to `CCN1CCN(CC(=O)Nc2ccc(-c3cccc4c(=O)cc(N5CCOCC5)oc34)c3sc4ccccc4c23)CC1`, the solubility (kinetic) worked out at 63.6 µg/mL (≈ 109 µM). As for `O=C(O)Cn1c(C(=O)Nc2nc(-c3ccccc3Cl)cs2)cc2ccccc21`, the figure is above 61 µg/mL.

For the compound `O=[S+]([O-])(Nc1nccs1)c1ccc(NCc2ccc(Cl)c(Cl)c2)cc1`, the kinetic solubility is below 1 µg/mL. The same measure for `Cc1ccc(NS(=O)(=O)c2cccc(C(=O)O)c2)cc1S(=O)(=O)N1CCOCC1`: above 65 µg/mL. Turning to `Cc1ccnc(NC(=S)N2CCN(c3ccc(Cl)cc3Cl)CC2)c1`, the kinetic solubility amounted to 2.28 µg/mL (≈ 5.97 µM). For `O=[S+]([O-])(Nc1ccc(N2CCNCC2)cc1)c1ccc(NCc2cccc(Cl)c2O)cc1`, the solubility (kinetic) is 52.4 µg/mL (≈ 111 µM). For `COc1ccccc1N1CCN(C2CCCCC2NS(=O)(=O)c2ccccc2)CC1` (configuration not stated), the kinetic solubility was 2.68 µg/mL (≈ 6.25 µM). The same measure for `Cc1ccnc(NC(=S)N2CCN(c3ccc(N)cc3)CC2)c1`: above 48 µg/mL; for `Cc1ccc(CNCc2cn[nH]c2-c2ccc(C)cc2)cc1`: 30 µg/mL (≈ 103 µM); for `CCOc1ccc(NC(=O)CC2C(=O)N(c3ccc(F)cc3)C(=O)N2CCc2sccc2C)cc1` (configuration not stated): below 1 µg/mL. `CC(=O)c1ccc(N2CCN(S(=O)(=O)c3ccc4[nH]c(=O)[nH]c4c3)CC2)cc1` displayed a solubility (kinetic) of 1.19 µg/mL (≈ 2.97 µM). As for `Oc1ccc(CNc2ccccc2Br)c2cccnc12`, the figure is 8.3 µg/mL (≈ 25.2 µM). As to `CC(C)c1ccc(S(=O)(=O)c2cnc(SCC(=O)Nc3ccc4c(c3)OCCO4)[nH]c2=O)cc1`, the solubility (kinetic) was above 74 µg/mL. Consider `COc1cccc(-c2csc(NC(=O)c3ccncc3NS(=O)(=O)c3ccc(C)cc3)n2)c1`, for which the solubility (kinetic) was above 71 µg/mL. As for `O=C(O)c1cn(C2CC2)c2cc(N3C[C@@H]4C[C@H]3CN4)c(F)cc2c1=O`, the figure is above 51 µg/mL; as for `O=C(CNC12CC3CC(CC(C3)C1)C2)c1ccc(Cl)cc1`, 34.6 µg/mL (≈ 114 µM); as for `Cc1noc(C)c1C(=O)N1CCC2(CCCN(Cc3ccccc3)C2)CC1`, below 1 µg/mL.

`Fc1ccc(Nc2nc(-c3ccncc3)nc3ccccc23)cc1F`: the solubility (kinetic) is below 1 µg/mL. Consider `O=S(=O)(c1ccccc1)N1CCCCC1CCc1ccccc1` (configuration not stated), for which the kinetic solubility was 4.39 µg/mL (≈ 13.3 µM). The same measure for `COc1ccccc1C(=O)Nc1nc2nc(C)cc(=O)n2[nH]1`: above 44 µg/mL; for `Cc1ccc(S(=O)(=O)Nc2cnccc2C(=O)Nc2nc(-c3cccc(F)c3)cs2)cc1`: 0.167 µg/mL (≈ 0.356 µM). Compound `COc1ccc2c(c1)/C(=C/c1cnc[nH]1)C(=O)N2` showed a solubility (kinetic) above 36 µg/mL.

The compound `COc1cc(-c2csc(N3CCC(C(N)=O)CC3)n2)cc(OC)c1OC` yielded a solubility (kinetic) above 56 µg/mL. The same measure for `CC(C)COc1ccc(-c2ccc(=O)n(CC(=O)NCCc3ccccc3)n2)cc1`: below 1 µg/mL. Compound `Cc1cc(C)c(CNC(=O)c2nc(-c3ccc(F)cc3)cc3c2ccn3C(C)C)c(=O)[nH]1` gave a solubility (kinetic) below 1 µg/mL.

In turn, `COC(=O)[C@@]12OC[C@]34[C@H]([C@@H](O)[C@@H]1O)[C@@]1(C)CC(=O)C(O)=C(C)[C@@H]1C[C@H]3OC(=O)[C@H](OC(=O)/C=C(\C)C(C)C)[C@@H]24` came in with a solubility (kinetic) above 81 µg/mL.

In turn, `CC(=O)c1c(C)[nH]c(C(=O)Nc2cccc(S(=O)(=O)Nc3cccc(C#N)c3)c2)c1C` returned a solubility (kinetic) of 21 µg/mL (≈ 48.2 µM). `Cc1nn2c(c1-c1ccccc1Oc1ccccc1)N(Cc1ccccc1O)CCC2` registered a kinetic solubility of 13.9 µg/mL (≈ 33.8 µM).

Compound `CCOc1ccc(CCNC(=O)c2ccc(C3(C(F)(F)F)N=N3)cc2)cc1OCC` gave a kinetic solubility below 1 µg/mL. `COc1cccc(CNc2ccc(S(=O)(=O)Nc3cccc4ccccc34)cc2)c1O` displayed a solubility (kinetic) below 1 µg/mL.

Turning to `CCN(CCO)CCCOc1ccc2c(Nc3cc(CC(=O)Nc4cccc(F)c4)[nH]n3)ncnc2c1`, the kinetic solubility is above 75 µg/mL. The same measure for `S=c1[nH]c2ccccc2n1CCc1ccccc1`: 5.04 µg/mL (≈ 19.8 µM). As for `Nc1ncnc2c1ncn2[C@H]1O[C@@H](CO)[C@@H](O)[C@H]1N`, the figure is above 39 µg/mL; as for `NC1CCN(C(=O)C2CCCN(c3nc(-c4ccccc4)nc4c3CCC4)C2)CC1` (configuration not stated), above 40 µg/mL; as for `Fc1ccc(CNc2cc3c(cn2)CN(Cc2ccncc2)CCN3)cc1`, 36.6 µg/mL (≈ 101 µM). As for `COc1cccc(NS(=O)(=O)c2ccc(C)cc2)c1C(=O)Nc1nc(-c2ccccc2)cs1`, the figure is below 1 µg/mL. `CCN(CC)CCOc1ccc(Cc2ccccc2)cc1` had a solubility (kinetic) of 8.35 µg/mL (≈ 29.5 µM).

Take `COc1ccc(Nc2nc(-c3ccncc3)nc3ccccc23)cc1F`: the kinetic solubility was below 1 µg/mL. For `O=C(Nc1nc(-c2ccccc2)cs1)c1ccncc1NS(=O)(=O)c1ccc(F)cc1Cl`, the kinetic solubility is below 1 µg/mL. As for `NC(=O)NCC(=O)N[C@H]1CC[C@H](Nc2nccc(-c3ccncc3)n2)C1`, the figure is above 35 µg/mL; as for `CCOC(=O)N1CCN(Cc2nc3c(c(=O)n(C)c(=O)n3C)n2CCC(C)C)CC1`, above 62 µg/mL. `Cc1ccccc1S(=O)(=O)N1CCCC(CCC(=O)NCCN(C)C2CCCCC2)C1` (configuration not stated) came in with a kinetic solubility of 11.7 µg/mL (≈ 26 µM). For the compound `OCCOCCN1CCN(C(c2ccccc2)c2ccc(Cl)cc2)CC1` (configuration not stated), the kinetic solubility was above 55 µg/mL. The same measure for `COc1cc2nc(N3CCCC3)nc(NCCCCCN3CCCC3)c2cc1OC`: above 61 µg/mL; for `CCc1ccc(-n2nc(C)c3c2NC(=O)CSC3c2ccccc2C)cc1` (configuration not stated): 1.11 µg/mL (≈ 2.95 µM); for `Cc1ccc(NC(=O)N2CCN(c3nc(N)nc4sc(-c5cccnc5)nc34)CC2)cc1`: below 1 µg/mL. In the case of `CC1CC(C)(C)N(C(=O)CN2C(=O)c3ccccc3C2=O)c2ccccc21` (configuration not stated), the kinetic solubility stood at 7.25 µg/mL (≈ 20 µM). As for `CCc1ccc(C2Sc3ccccc3NC3=C2C(=O)c2ccccc23)cc1` (configuration not stated), the kinetic solubility is below 1 µg/mL.
